Results from patent publication US8198273B2, “Compounds and methods for kinase modulation, and indications therefor” (Plexxikon Inc., priority 2009, dated 2012).

Experiments:
B-Raf V600E = B-Raf V600E (Homo sapiens, UniProt P15056, V600E); assay: B-Raf V600E biochemical kinase inhibition (AlphaScreen, biotin-MEK1 substrate); conditions: 100 μM ATP
Outline: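 Serial 1:3 dilutions of compound (0.1 mM DMSO stock, eight points) were added first, then ATP to start the reaction at 100 μM final.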

CYP3A4(BFC) = CYP3A4(BFC) (Homo sapiens, UniProt P08684); assay: CYP3A4(BFC) inhibition (fluorescent substrate); format: in vitro ADME; conditions: read-out: Cyp IC50 3A4(BFC)
Outline: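 Compound, from a 100 mM DMSO stock and diluted 1:1 over 10 points in co-factor mix, was incubated at 37° C with enzyme and a known substrate. Decrease in fluorescent product against concentration gave the IC50.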

[1] = tested on: A375 melanoma cells (B-Raf V600E); assay: A375 cell growth inhibition (ATPlite); format: cell-based; conditions: Homo sapiens, A-375, 72 h; A375, 3 days incubation
Outline: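 ATPlite luminescence, taken as a cell-number measure, gave IC50 values after a 3-day 37° C, 5% CO2 incubation. Compounds were tested as 8-point threefold titrations, highest final concentration 10 μM, added to cells seeded the day before.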

B-Raf V600E, sequence (P15056 whole entry V600E): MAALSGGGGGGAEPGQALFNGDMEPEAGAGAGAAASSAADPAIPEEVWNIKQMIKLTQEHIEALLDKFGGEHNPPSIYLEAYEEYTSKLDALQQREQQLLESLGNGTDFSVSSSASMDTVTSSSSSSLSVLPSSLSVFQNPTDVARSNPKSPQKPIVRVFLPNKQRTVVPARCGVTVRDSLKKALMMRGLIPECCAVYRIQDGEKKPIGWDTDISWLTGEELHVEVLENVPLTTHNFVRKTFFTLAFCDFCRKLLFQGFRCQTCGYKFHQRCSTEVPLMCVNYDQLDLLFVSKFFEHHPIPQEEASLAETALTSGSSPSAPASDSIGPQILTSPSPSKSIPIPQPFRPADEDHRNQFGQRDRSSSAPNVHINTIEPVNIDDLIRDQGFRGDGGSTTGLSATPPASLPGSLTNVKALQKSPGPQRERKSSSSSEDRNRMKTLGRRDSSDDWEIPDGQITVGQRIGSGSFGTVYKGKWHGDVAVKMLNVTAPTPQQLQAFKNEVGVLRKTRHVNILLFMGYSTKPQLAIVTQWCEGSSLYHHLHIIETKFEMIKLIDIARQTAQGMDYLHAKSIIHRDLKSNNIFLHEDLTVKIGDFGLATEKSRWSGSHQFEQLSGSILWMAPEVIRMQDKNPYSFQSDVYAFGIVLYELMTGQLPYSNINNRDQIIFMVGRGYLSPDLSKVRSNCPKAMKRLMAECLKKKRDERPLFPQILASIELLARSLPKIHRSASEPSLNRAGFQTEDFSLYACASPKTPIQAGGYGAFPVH
CYP3A4(BFC), sequence (P08684 whole entry): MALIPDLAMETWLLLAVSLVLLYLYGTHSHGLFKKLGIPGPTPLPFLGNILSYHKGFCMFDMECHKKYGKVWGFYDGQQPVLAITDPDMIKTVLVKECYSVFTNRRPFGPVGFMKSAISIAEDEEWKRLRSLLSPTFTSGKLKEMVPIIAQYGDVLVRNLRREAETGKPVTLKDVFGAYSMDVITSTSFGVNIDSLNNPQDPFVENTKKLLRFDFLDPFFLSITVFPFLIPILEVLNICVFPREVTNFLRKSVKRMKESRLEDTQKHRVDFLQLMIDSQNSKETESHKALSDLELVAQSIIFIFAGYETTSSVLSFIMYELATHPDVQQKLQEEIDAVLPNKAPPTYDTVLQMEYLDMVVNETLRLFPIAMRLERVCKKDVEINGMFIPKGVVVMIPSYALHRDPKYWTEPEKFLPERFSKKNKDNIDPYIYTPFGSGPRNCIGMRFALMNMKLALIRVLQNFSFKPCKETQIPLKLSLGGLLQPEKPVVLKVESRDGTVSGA

IC50 (B-Raf V600E): < 100 nM
IC50 (CYP3A4(BFC)): > 10000 nM
IC50 [1]: < 100 nM
SMILES: CCCS(=O)(=O)Nc1ccc(F)c(C(=O)c2c[nH]c3ncc(-c4ccc(N(C)C)nc4)cc23)c1F [P-2229, Propane-1-sulfonic acid {3-[5-(6-dimethylamino-pyridin-3-yl)-1H-pyrrolo[2,3-b]pyridine-3-carbonyl]-2,4-difluoro-phenyl}-amide]
